# Test results reported in the supplement of paper PMC9663587.
# How the values were obtained:
# [1] = compound: CC(=O)c1c(C)c2cnc(Nc3ccc(N4CCNCC4)cn3)nc2n(C2CCCC2)c1=O; test: increase in dead-cell fraction, 72 h; higher = more death;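 note: breast cancer cell lines in 384-well plates, stained with Hoechst plus LIVE/DEAD far red dye and imaged, cells above an LDR intensity threshold counted dead, Hoechst-negative corpses included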
# THZ1 [2] = compound: T1, CN(C)C/C=C/C(=O)Nc1ccc(C(=O)Nc2cccc(Nc3ncc(Cl)c(-c4c[nH]c5ccccc45)n3)c2)cc1 [THZ1]; test: as above
# YKL-5-124 = compound: C=CC(=O)Nc1ccc(C(=O)Nc2[nH]nc3c2CN(C(=O)N[C@H](CN(C)C)c2ccccc2)C3(C)C)cc1 [YKL-5-124]; test: as above
# Flavopiridol = compound: CN1CC[C@H](c2c(O)cc(O)c3c(=O)cc(-c4ccccc4Cl)oc23)[C@H](O)C1 [Flavopiridol]; test: as above
# [3] = compound: CCN1CCN(Cc2ccc(Nc3ncc(F)c(-c4cc(F)c5nc(C)n(C(C)C)c5c4)n3)nc2)CC1; test: as above
# BSJ-03-123 = compound: CC(=O)c1c(C)c2cnc(Nc3ccc(N4CCN(CCOCCOCCOCCNC(=O)COc5cccc6c5C(=O)N(C5CCC(=O)NC5=O)C6=O)CC4)cn3)nc2n(C2CCCC2)c1=O [BSJ-03-123]; test: as above
# THZ531 = compound: CN(C)C/C=C/C(=O)Nc1ccc(C(=O)N2CCC[C@@H](Nc3ncc(Cl)c(-c4c[nH]c5ccccc45)n3)C2)cc1 [THZ531]; test: as above
# [4] = compound: CCc1cnn2c(NCc3ccc[n+]([O-])c3)cc(N3CCCC[C@H]3CCO)nc12; test: as above
# LEE011/Ribociclib = compound: CN(C)C(=O)c1cc2cnc(Nc3ccc(N4CCNCC4)cn3)nc2n1C1CCCC1 [LEE011/Ribociclib]; test: as above
# Neratinib/HKI272 [5] = compound: T2, CCOc1cc2ncc(C#N)c(Nc3ccc(OCc4ccccn4)c(Cl)c3)c2cc1NC(=O)/C=C/CN(C)C [Neratinib/HKI272]; test: as above
# THZ1 [6] = compound: T1, THZ1; test: GR value, 72 h; higher = faster growth (1 = untreated, <0 = killing);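 note: breast cancer and non-malignant breast epithelial lines, nine half-log doses, viable cells counted by Hoechst and LIVE/DEAD dye imaging versus time-zero plates and DMSO controls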
# Neratinib/HKI272 [7] = compound: T2, Neratinib/HKI272; test: as above
cell line,measurement,setting,value
MDAMB231,increase in dead-cell fraction,[1]; 0.0003162 µM,-0.0007
same,increase in dead-cell fraction,[1]; 0.001 µM,0.0057
same,increase in dead-cell fraction,[1]; 0.003162 µM,-0.0035
same,increase in dead-cell fraction,[1]; 0.01 µM,-0.0069
same,increase in dead-cell fraction,[1]; 0.03162 µM,-0.0054
same,increase in dead-cell fraction,[1]; 0.1 µM,0.0066
same,increase in dead-cell fraction,[1]; 0.3162 µM,0.0151
same,increase in dead-cell fraction,[1]; 1 µM,0.0334
same,increase in dead-cell fraction,[1]; 3.162 µM,0.0399
same,increase in dead-cell fraction,THZ1 [2]; 0.0001 µM,-0.0006
same,increase in dead-cell fraction,THZ1 [2]; 0.0003162 µM,0.0015
same,increase in dead-cell fraction,THZ1 [2]; 0.001 µM,0.0027
same,increase in dead-cell fraction,THZ1 [2]; 0.003162 µM,0.0007
same,increase in dead-cell fraction,THZ1 [2]; 0.01 µM,-0.0012
same,increase in dead-cell fraction,THZ1 [2]; 0.03162 µM,0.0033
same,increase in dead-cell fraction,THZ1 [2]; 0.1 µM,0.0231
same,increase in dead-cell fraction,THZ1 [2]; 0.3162 µM,0.0712
same,increase in dead-cell fraction,THZ1 [2]; 1 µM,0.363
same,increase in dead-cell fraction,YKL-5-124; 0.001 µM,0.0171
same,increase in dead-cell fraction,YKL-5-124; 0.003162 µM,0.0093
same,increase in dead-cell fraction,YKL-5-124; 0.01 µM,0.016
same,increase in dead-cell fraction,YKL-5-124; 0.03162 µM,0.0176
same,increase in dead-cell fraction,YKL-5-124; 0.1 µM,0.0238
same,increase in dead-cell fraction,YKL-5-124; 0.3162 µM,0.0218
same,increase in dead-cell fraction,YKL-5-124; 1 µM,0.0259
same,increase in dead-cell fraction,YKL-5-124; 3.162 µM,0.0247
same,increase in dead-cell fraction,YKL-5-124; 10 µM,0.155
same,increase in dead-cell fraction,Flavopiridol; 0.0001 µM,-0.0026
same,increase in dead-cell fraction,Flavopiridol; 0.0003162 µM,-0.0012
same,increase in dead-cell fraction,Flavopiridol; 0.001 µM,0.002
same,increase in dead-cell fraction,Flavopiridol; 0.003162 µM,0.0006
same,increase in dead-cell fraction,Flavopiridol; 0.01 µM,-0.0004
same,increase in dead-cell fraction,Flavopiridol; 0.03162 µM,-0.0008
same,increase in dead-cell fraction,Flavopiridol; 0.1 µM,0.0005
same,increase in dead-cell fraction,Flavopiridol; 0.3162 µM,0.0405
same,increase in dead-cell fraction,Flavopiridol; 1 µM,0.485
same,increase in dead-cell fraction,[3]; 0.001 µM,0.0075
same,increase in dead-cell fraction,[3]; 0.003162 µM,0.0028
same,increase in dead-cell fraction,[3]; 0.01 µM,0.0023
same,increase in dead-cell fraction,[3]; 0.03162 µM,0.0037
same,increase in dead-cell fraction,[3]; 0.1 µM,0.0398
same,increase in dead-cell fraction,[3]; 0.3162 µM,0.0474
same,increase in dead-cell fraction,[3]; 1 µM,0.12
same,increase in dead-cell fraction,[3]; 3.162 µM,0.366
same,increase in dead-cell fraction,[3]; 10 µM,0.68
same,increase in dead-cell fraction,BSJ-03-123; 0.001 µM,-0.0008
same,increase in dead-cell fraction,BSJ-03-123; 0.003162 µM,-0.0016
same,increase in dead-cell fraction,BSJ-03-123; 0.01 µM,0.0034
same,increase in dead-cell fraction,BSJ-03-123; 0.03162 µM,0.0017
same,increase in dead-cell fraction,BSJ-03-123; 0.1 µM,0.0035
same,increase in dead-cell fraction,BSJ-03-123; 0.3162 µM,0.0024
same,increase in dead-cell fraction,BSJ-03-123; 1 µM,0.0009
same,increase in dead-cell fraction,BSJ-03-123; 3.162 µM,0.0031
same,increase in dead-cell fraction,BSJ-03-123; 10 µM,0.157
same,increase in dead-cell fraction,THZ531; 0.0001 µM,-0.0027
same,increase in dead-cell fraction,THZ531; 0.0003162 µM,-0.0002
same,increase in dead-cell fraction,THZ531; 0.001 µM,0.002
same,increase in dead-cell fraction,THZ531; 0.003162 µM,-0.0005
same,increase in dead-cell fraction,THZ531; 0.01 µM,-0.0004
same,increase in dead-cell fraction,THZ531; 0.03162 µM,0.0008
same,increase in dead-cell fraction,THZ531; 0.1 µM,0.0103
same,increase in dead-cell fraction,THZ531; 0.3162 µM,0.0403
same,increase in dead-cell fraction,THZ531; 1 µM,0.224
same,increase in dead-cell fraction,[4]; 0.0001 µM,0.0051
same,increase in dead-cell fraction,[4]; 0.0003162 µM,-0.0006
same,increase in dead-cell fraction,[4]; 0.001 µM,0.0055
same,increase in dead-cell fraction,[4]; 0.003162 µM,-0.0028
same,increase in dead-cell fraction,[4]; 0.01 µM,0.0529
same,increase in dead-cell fraction,[4]; 0.03162 µM,0.459
same,increase in dead-cell fraction,[4]; 0.1 µM,0.573
same,increase in dead-cell fraction,[4]; 0.3162 µM,0.582
same,increase in dead-cell fraction,[4]; 1 µM,0.618
same,increase in dead-cell fraction,LEE011/Ribociclib; 0.001 µM,-0.0007
same,increase in dead-cell fraction,LEE011/Ribociclib; 0.003162 µM,-0.0028
same,increase in dead-cell fraction,LEE011/Ribociclib; 0.01 µM,0.0009
same,increase in dead-cell fraction,LEE011/Ribociclib; 0.03162 µM,-0.0021
same,increase in dead-cell fraction,LEE011/Ribociclib; 0.1 µM,0.0045
same,increase in dead-cell fraction,LEE011/Ribociclib; 0.3162 µM,0.005
same,increase in dead-cell fraction,LEE011/Ribociclib; 1 µM,0.0045
same,increase in dead-cell fraction,LEE011/Ribociclib; 3.162 µM,0.0025
same,increase in dead-cell fraction,LEE011/Ribociclib; 10 µM,0.014
same,increase in dead-cell fraction,Neratinib/HKI272 [5]; 0.0003162 µM,0.0013
same,increase in dead-cell fraction,Neratinib/HKI272 [5]; 0.001 µM,-0.0029
same,increase in dead-cell fraction,Neratinib/HKI272 [5]; 0.003162 µM,0.0044
same,increase in dead-cell fraction,Neratinib/HKI272 [5]; 0.01 µM,0.0008
same,increase in dead-cell fraction,Neratinib/HKI272 [5]; 0.03162 µM,0.0108
same,increase in dead-cell fraction,Neratinib/HKI272 [5]; 0.1 µM,0.0067
same,increase in dead-cell fraction,Neratinib/HKI272 [5]; 0.3162 µM,0.0175
same,increase in dead-cell fraction,Neratinib/HKI272 [5]; 1 µM,0.0509
same,increase in dead-cell fraction,Neratinib/HKI272 [5]; 3.162 µM,0.378
same,GR value,THZ1 [6]; 0.0001 µM,1.02 GR
same,GR value,THZ1 [6]; 0.0003162 µM,0.992 GR
same,GR value,THZ1 [6]; 0.001 µM,0.993 GR
same,GR value,THZ1 [6]; 0.003162 µM,1.03 GR
same,GR value,THZ1 [6]; 0.01 µM,0.972 GR
same,GR value,THZ1 [6]; 0.03162 µM,0.701 GR
same,GR value,THZ1 [6]; 0.1 µM,0.26 GR
same,GR value,THZ1 [6]; 0.3162 µM,-0.0565 GR
same,GR value,THZ1 [6]; 1 µM,-0.5 GR
same,GR value,Neratinib/HKI272 [7]; 0.0003162 µM,1.03 GR
same,GR value,Neratinib/HKI272 [7]; 0.001 µM,0.999 GR
same,GR value,Neratinib/HKI272 [7]; 0.003162 µM,0.978 GR
same,GR value,Neratinib/HKI272 [7]; 0.01 µM,1.05 GR
same,GR value,Neratinib/HKI272 [7]; 0.03162 µM,1.03 GR
same,GR value,Neratinib/HKI272 [7]; 0.1 µM,1.01 GR
same,GR value,Neratinib/HKI272 [7]; 0.3162 µM,0.917 GR
same,GR value,Neratinib/HKI272 [7]; 1 µM,0.688 GR
same,GR value,Neratinib/HKI272 [7]; 3.162 µM,-0.0968 GR
